# Source: article PMC5546919 (The Journal of organic chemistry, 2010)
# Legend:
# Assay type in all cases: biochemical
# [1] = target: T1, human 20S proteasome, caspase-like (C-L) activity (Homo sapiens, UniProt P28072); assay: Proteasome-Glo luminogenic assay, C-L substrate
# T1 sequence (P28072 35-239): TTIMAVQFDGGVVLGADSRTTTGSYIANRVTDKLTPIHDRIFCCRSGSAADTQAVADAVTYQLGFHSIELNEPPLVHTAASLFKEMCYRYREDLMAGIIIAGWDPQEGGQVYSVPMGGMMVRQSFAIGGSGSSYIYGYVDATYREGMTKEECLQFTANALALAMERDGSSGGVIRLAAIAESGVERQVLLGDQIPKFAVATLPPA
# [2] = target: T2, human 20S proteasome, chymotrypsin-like (CT-L) activity (Homo sapiens, UniProt P28074); assay: Proteasome-Glo luminogenic assay, CT-L substrate
# T2 sequence (P28074 60-263): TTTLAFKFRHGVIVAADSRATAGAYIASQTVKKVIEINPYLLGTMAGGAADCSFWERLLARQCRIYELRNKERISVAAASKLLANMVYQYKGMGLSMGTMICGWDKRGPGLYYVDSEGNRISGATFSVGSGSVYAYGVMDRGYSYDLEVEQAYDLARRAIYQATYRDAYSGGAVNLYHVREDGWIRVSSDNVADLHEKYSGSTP
# [3] = target: T3, human 20S proteasome, trypsin-like (T-L) activity (Homo sapiens, UniProt Q99436); assay: Proteasome-Glo luminogenic assay, T-L substrate
# T3 sequence (Q99436 44-277): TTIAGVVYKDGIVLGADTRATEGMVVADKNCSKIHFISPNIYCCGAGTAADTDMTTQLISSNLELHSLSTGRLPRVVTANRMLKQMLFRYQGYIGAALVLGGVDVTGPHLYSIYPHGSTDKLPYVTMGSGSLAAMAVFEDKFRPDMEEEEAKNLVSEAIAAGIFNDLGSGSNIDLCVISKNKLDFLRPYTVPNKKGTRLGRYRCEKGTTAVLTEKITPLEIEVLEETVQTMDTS
# [4] = target: T4, human 26S proteasome, chymotrypsin-like (CT-L) activity (Homo sapiens, UniProt P28074); assay: Proteasome-Glo luminogenic assay, CT-L substrate
# T4 sequence (P28074 60-263): T2 sequence (P28074 60-263)
# [5] = target: T5, human 26S proteasome, caspase-like (C-L) activity (Homo sapiens, UniProt P28072); assay: Proteasome-Glo luminogenic assay, C-L substrate
# T5 sequence (P28072 35-239): T1 sequence (P28072 35-239)
# [6] = target: T6, human 26S proteasome, trypsin-like (T-L) activity (Homo sapiens, UniProt Q99436); assay: Proteasome-Glo luminogenic assay, T-L substrate
# T6 sequence (Q99436 44-277): T3 sequence (Q99436 44-277)
compound,measurement,setting,value
"CCCCCCC1C(=O)NC2(C(O)C3C=CCCC3)C(=O)OC12C (racemic) [(±)-2, rac-cinnabaramide A]",IC50,[1],125 ± 12 nM
same,IC50,[2],2.8 ± 0.6 nM
same,IC50,[3],260 ± 29 nM
same,IC50,[4],2.2 ± 0.04 nM
"C[C@@]12OC(=O)[C@]1([C@@H](O)[C@@H]1C=CCCC1)NC(=O)[C@@H]2CCCl [1a, (−)-salino A]",IC50,[1],111 ± 22 nM
same,IC50,[5],156 ± 18 nM
same,IC50,[6],37 ± 16 nM
same,IC50,[3],39 ± 7 nM
"C[C@@]12OC(=O)[C@]1([C@@H](O)[C@@H]1C=CCCC1)NC(=O)[C@@H]2CCCCl [compound 54, (−)-homosalino]",IC50,[1],144 ± 12 nM
same,IC50,[5],188 ± 3 nM
same,IC50,[6],125 ± 30 nM
same,IC50,[3],118 ± 28 nM
